The numbers were not newly measured in US20250195668A1, “BIFUNCTIONAL MOLECULES FOR SELECTIVE MODIFICATION OF TARGET SUBSTRATES” (The Broad Institute, Inc., priority 2021, published 2025), which cites them from elsewhere.

A word on the IC50: it is the concentration needed to halve the response being measured.

What all share (conditions): cited from earlier work
One series has as its system hWB.
For another series, the target named is T1, TYK JH2 (Homo sapiens, UniProt P29597).
T1 construct: TYK JH2

A further series relates to IFNα.
The test system of series [1] is NF-κB Pathway (U937 cells).

T1 sequence (P29597 589-875 limits assumed): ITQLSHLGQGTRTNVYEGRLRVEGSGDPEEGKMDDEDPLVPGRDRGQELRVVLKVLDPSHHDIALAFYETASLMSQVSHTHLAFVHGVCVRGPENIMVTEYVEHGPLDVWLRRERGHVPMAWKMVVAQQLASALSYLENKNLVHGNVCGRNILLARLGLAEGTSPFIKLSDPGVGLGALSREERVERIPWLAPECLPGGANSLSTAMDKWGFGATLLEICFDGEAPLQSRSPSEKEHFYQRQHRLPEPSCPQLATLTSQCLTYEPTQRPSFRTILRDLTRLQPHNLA

Take `O=C(O)c1cc(-c2cccc(F)c2)nc2ccccc12` [compound 26]: the concentration for half-maximal inhibition (IC50) with hWB was 870 ± 360 nM; at TYK JH2, 1.1 ± 0.2 nM; in the series on IFNα, 64 ± 17 nM.

As for `Cc1cccc(N2N=C(C(C)(C)C)CC2c2ccc(O)cc2)c1` (stereo not shown) [1k], the “NF-κB reporter gene assay % inhibn at 5 μM” value in series [1] is listed as 73.7%.
